Data taken from US20250340510A1, “Substituted Phenylbenzenesulfonamide Derivatives and Uses Thereof” (Nine Square Therapeutics Corporation, priority 2022, published 2025).

Columns and labels:
TRPML1 = TRPML1 (Homo sapiens, UniProt Q9GZU1); experiment: Calcium flux in HEK293 overexpressing TRPML1 plasma membrane variant (FLIPR, Calcium 6 dye); assay type: cell-based; settings: HEK293/TRPML1-PM clone A5 cells; 4-parameter logistic fit; read-out: TRPML1 calcium flux (FLIPR) dose response: EC50
Outline: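 HEK293 clone expressing plasma-membrane-targeted TRPML1 (N- and C-terminal dileucine motifs deleted), loaded with Calcium 6 dye for 2 h at 37 °C in HBSS/20 mM HEPES pH 7.4. Fluorescence recorded 10 s baseline then 170 s after compound addition. Max-minus-min response over baseline fitted by 4-parameter logistic for EC50.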

TFEB = TFEB translocation assay in HeLa cells (nuclear to cytoplasmic TFEB ratio, high-content imaging); assay type: cell-based; settings: 90 mins incubation at 37° C., ratio of nuclear to cytoplasmic TFEB
Experimental: Example B2. TFEB Translocation Assay
Rabbit TFEB antibody, Cell Signaling Technology #4240S
PFA 16% MeOH-free, Election Microscopy Sciences #50-980-487
HCS CellMask Deep Red, ThermoFisher Scientific #H32721
Plates: Perkin Elmer Phenoplate #605730 black optically clear, tissue culture treated 384-well plate
Example B2.2 Method, Day 1: Cells Seeded in 384WP
Cells were seeded in the afternoon. The outer one row of the plate was not used to avoid outer well edge effects.
HeLa cells were detached using trypsin, and the cells were counted using a cell counter.
4000 HeLa cells were seeded per well in […] growth media (DMEM with 10% FBS, 1 mM sodium pyruvate and Pen-Strep).
Example B2.3 Method, Day 2: Assay with TRPML1 Compounds+Staining
Compounds were added to cells using a Tecan D300e dispenser.
Cells were incubated for 90 mins at 37° C. with the compounds (compound range: 80 nM-[…] (2× step dilution—8 dilution steps, 3 replicates per condition)
The cells were fixed by adding 16.5 μL of 16% PFA (4% final) and incubating for 15 min at room temperature.
The cells were washed with 3× in PBS-TX (PBS+0.1% Triton X-100)−1×100 μL followed by 2×50 μL.
The cells were blocked and permeabilized in 30 μL of blocking buffer (PBS-TX+5% goat serum) for 1 h.
The cells were incubated with TFEB antibody (1:200, CST 4240S) in 30 μL blocking buffer overnight at 4° C. The plates were kept damp to avoid evaporation.
Example B2.4 Method, Day 3: Staining+Imaging
The cells were washed 3× in PBS-TX—3×100 μL with a Biotek EL406 washer.
The cells were incubated with Goat anti-Rb Alexa-Fluor 488 (1:2000), cell mask (1:10,000) and Hoechst (1:10,000) in 30 μL blocking buffer for 1 h at room temperature. The solution was dispensed using a 5 μL peristaltic cassette (EL406).
The cells were washed 3× in PBS-TX—3×100 μL with a EL406 washer, then […] PBS was dispensed using a 5 μL peristaltic cassette (EL406).
The cells were imaged on an Operetta CLS High-content imaging system using a 20× water immersion objective (NA 1.0) the same day.
Image analysis was performed using Harmony V4.9 (Perkin Elmer). Briefly, nuclei were segmented from background-corrected images using Hoechst intensity, and cell body segmented using HCS CellMask DeepRed. A sliding parabola filter was applied to the AlexaFluor 488 channel (TFEB), before sum pixel intensity in the nuclear and cytoplasmic regions was calculated. A ratio of nuclear to cytoplasmic TFEB was used to define TFEB translocation from the cytosolic to nuclear compartment. The EC50 values derived by fitting the data to a sigmoidal dose response curve using Prism 9 (Graphpad).

Sequence of TRPML1 (Q9GZU1 17-572 limits assumed): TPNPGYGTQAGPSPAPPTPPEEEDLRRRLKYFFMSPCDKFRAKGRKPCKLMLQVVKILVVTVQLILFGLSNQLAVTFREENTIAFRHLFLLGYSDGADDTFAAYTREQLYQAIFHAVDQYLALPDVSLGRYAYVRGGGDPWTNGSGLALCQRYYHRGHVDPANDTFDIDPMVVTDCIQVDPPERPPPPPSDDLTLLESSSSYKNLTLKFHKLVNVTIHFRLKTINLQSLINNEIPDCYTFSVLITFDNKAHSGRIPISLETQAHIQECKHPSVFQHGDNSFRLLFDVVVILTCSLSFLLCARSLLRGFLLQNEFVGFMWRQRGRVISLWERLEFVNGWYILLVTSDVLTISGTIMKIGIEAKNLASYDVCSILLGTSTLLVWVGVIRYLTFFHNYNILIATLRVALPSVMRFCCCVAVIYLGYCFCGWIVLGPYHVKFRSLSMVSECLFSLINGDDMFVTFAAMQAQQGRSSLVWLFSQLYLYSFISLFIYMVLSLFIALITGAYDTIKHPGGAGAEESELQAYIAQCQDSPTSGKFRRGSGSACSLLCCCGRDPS

| Structure (SMILES) | EC50 (TRPML1) [nM] | EC50 (TFEB; Homo sapiens, HeLa, 1.5 h) [nM] | EC50 (TFEB; Homo sapiens, 1.5 h) [nM] | EC50 (TFEB) [nM] |
| --- | --- | --- | --- | --- |
| CCN(C)c1c(Cl)cccc1NS(=O)(=O)c1ccc(S(=O)(=O)N(C)C)cc1 [Compound 78, N1-(3-chloro-2-(ethyl(methyl)amino)phenyl)-N4,N4-dimethylbenzene-1,4-disulfonamide] | 868 | 1460 | – | – |
| CCCN(C)c1c(Cl)cccc1NS(=O)(=O)c1ccc(S(=O)(=O)N(C)C)cc1 [Compound 74, N1-(3-chloro-2-(methyl(propyl)amino)phenyl)-N4,N4-dimethylbenzene-1,4-disulfonamide] | 242 | 676 | – | – |
| CN(c1ccccc1NS(=O)(=O)c1ccc(S(=O)(=O)N(C)C)cc1)C1CCCC(F)(F)C1 (centres unmarked) [Compound 104, N1-(2-((3,3-difluorocyclohexyl) (methyl)amino)phenyl)-N4,N4-dimethylbenzene-1,4-disulfonamide] | 715 | 573 | – | – |
| CN(CC1CCC1)c1c(Cl)cccc1NS(=O)(=O)c1ccc(S(=O)(=O)N(C)C)cc1 [Compound 69, N1-(3-chloro-2-((cyclobutylmethyl)(methyl)amino)phenyl)-N4,N4-dimethylbenzene-1,4-disulfonamide] | 421 | 339 | – | – |
| CN(c1ccccc1NS(=O)(=O)c1ccc(S(=O)(=O)N(C)C)cc1)C1CCCCC1 [Compound 118, N1-(2-(cyclohexyl(methyl)amino)phenyl)-N4,N4-dimethylbenzene-1,4-disulfonamide] | 276 | 529 | – | – |
| CN(CC1(F)CCCC1)c1ccccc1NS(=O)(=O)c1ccc(S(=O)(=O)N(C)C)cc1 [Compound 93, N1-(2-(((1-fluorocyclopentyl)methyl)(methyl)amino)phenyl)-N4,N4-dimethylbenzene-1,4-disulfonamide] | 857 | 649 | – | – |
| CN(C)S(=O)(=O)c1ccc(S(=O)(=O)Nc2ccccc2N(C)[C@H]2CC[C@H](C)CC2)cc1 [Compound 28, N1,N1-dimethyl-N4-(2-(methyl((1r,4r)-4-methylcyclohexyl)amino)phenyl)benzene-1,4-disulfonamide] | 350 | 1100 | – | – |
| CN(C)S(=O)(=O)c1ccc(S(=O)(=O)Nc2ccccc2N(CC2COC2)C2CCCCC2)cc1 [Compound 84, N1-(2-(Cyclohexyl(oxetan-3-ylmethyl)amino)phenyl)-N4,N4-dimethylbenzene-1,4-disulfonamide] | 567 | 664 | – | – |
| CN(c1ccccc1NS(=O)(=O)c1ccc(S(=O)(=O)N(C)C)cc1)C1CCOC(C)(C)C1 (centres unmarked) [Compound 111, N1-(2-((2,2-dimethyltetrahydro-2H-pyran-4-yl)(methyl)amino)phenyl)-N4,N4-dimethylbenzene-1,4-disulfonamide] | 812 | 3290 | – | – |
| CC(C)CCN(C)c1c(Cl)cccc1NS(=O)(=O)c1ccc(S(=O)(=O)N(C)C)cc1 [Compound 67, N1-(3-chloro-2-(isopentyl(methyl)amino)phenyl)-N4,N4-dimethylbenzene-1,4-disulfonamide] | 420 | 353 | – | – |
| Cc1cccc(NS(=O)(=O)c2ccc(S(=O)(=O)N(C)C)cc2)c1N(C)C1CCCCC1 [Compound 98, N1-(2-(cyclohexyl(methyl)amino)-3-methylphenyl)-N4,N4-dimethylbenzene-1,4-disulfonamide] | 46.6 | 117 | – | – |
| Cc1cccc(NS(=O)(=O)c2ccc(S(=O)(=O)N(C)C)cc2)c1N(C)Cc1cscn1 [Compound 71, N1,N1-dimethyl-N4-(3-methyl-2-(methyl(thiazol-4-ylmethyl)amino)phenyl)benzene-1,4-disulfonamide] | 818 | 4040 | – | – |
| CN(c1ccccc1NS(=O)(=O)c1ccc(S(=O)(=O)N(C)C)cc1)C1CCOC1(C)C (centres unmarked) [Compound 97, N1-(2-((2,2-dimethyltetrahydro-furan-3-yl)(methyl)amino)phenyl)-N4,N4-dimethylbenzene-1,4-disulfonamide] | 347 | 516 | – | – |
| CN(Cc1cscn1)c1c(F)cccc1NS(=O)(=O)c1ccc(S(=O)(=O)N(C)C)cc1 [Compound 68, N1-(3-fluoro-2-(methyl(thiazol-4-ylmethyl)amino)phenyl)-N4,N4-dimethylbenzene-1,4-disulfonamide] | 1030 | 2230 | – | – |
| Cc1cccc(NS(=O)(=O)c2ccc(S(=O)(=O)N(C)C)cc2)c1N(C)Cc1cncs1 [Compound 72, N1,N1-Dimethyl-N4-(3-methyl-2-(methyl(thiazol-5-ylmethyl)amino)phenyl)benzene-1,4-disulfonamide] | 572 | 1760 | – | – |
| CN(c1c(F)cccc1NS(=O)(=O)c1ccc(S(=O)(=O)N(C)C)cc1)C1CCCCC1 [Compound 12, N1-(2-(cyclohexyl(methyl)amino)-3-fluorophenyl)-N4,N4-dimethylbenzene-1,4-disulfonamide] | 720 | < 80 | – | – |
| CN(Cc1cncs1)c1c(Cl)cccc1NS(=O)(=O)c1ccc(S(=O)(=O)N(C)C)cc1 [Compound 73, N1-(3-chloro-2-(methyl(thiazol-5-ylmethyl)amino)phenyl)-N4,N4-dimethylbenzene-1,4-disulfonamide] | 996 | 4850 | – | – |
| CN(C)S(=O)(=O)c1ccc(S(=O)(=O)Nc2ccccc2N(CC(F)(F)F)C2CCCCC2)cc1 [Compound 81, N1-(2-(cyclohexyl(2,2,2-trifluoroethyl)amino)phenyl)-N4,N4-dimethylbenzene-1,4-disulfonamide] | 461 | 323 | – | – |
| CN(c1ccc(C(F)(F)F)cc1NS(=O)(=O)c1ccc(S(=O)(=O)N(C)C)cc1)C1CCCCC1 [Compound 110, N1-(2-(cyclohexyl(methyl)amino)-5-(trifluoromethyl)phenyl)-N4,N4-dimethylbenzene-1,4-disulfonamide] | 256 | – | 246 | – |
| CN(Cc1cncs1)c1c(F)cccc1NS(=O)(=O)c1ccc(S(=O)(=O)N(C)C)cc1 [Compound 70, N1-(3-Fluoro-2-(methyl(thiazol-5-ylmethyl)amino)phenyl)-N4,N4-dimethylbenzene-1,4-disulfonamide] | 1340 | 6960 | – | – |
| CN(CC1CCCCO1)c1ccccc1NS(=O)(=O)c1ccc(S(=O)(=O)N(C)C)cc1 (centres unmarked) [Compound 108, N1,N1-dimethyl-N4-(2-(methyl((tetrahydro-2H-pyran-2-yl)methyl)amino)phenyl)benzene-1,4-disulfonamide] | 790 | 431 | – | – |
| CN(c1ccccc1NS(=O)(=O)c1ccc(S(=O)(=O)N(C)C)cc1)C1CCOC2(CCC2)C1 (centres unmarked) [Compound 87, N1,N1-dimethyl-N4-(2-(methyl(5-oxaspiro[3.5]nonan-8-yl)amino)phenyl)benzene-1,4-disulfonamide] | 823 | 674 | – | – |
| CN(CC1(F)CC1)c1ccccc1NS(=O)(=O)c1ccc(S(=O)(=O)N(C)C)cc1 [Compound 95, N1-(2-(((1-fluorocyclopropyl)methyl)(methyl)amino)phenyl)-N4,N4-dimethylbenzene-1,4-disulfonamide] | 274 | 1270 | – | 915 |
| CN(CC1CCCC1)c1ccccc1NS(=O)(=O)c1ccc(S(=O)(=O)N(C)C)cc1 [Compound 25, N1-(2-((cyclopentylmethyl)(methyl)amino)phenyl)-N4,N4-dimethylbenzene-1,4-disulfonamide] | 420 | 540 | – | – |
| CN(c1ccccc1NS(=O)(=O)c1ccc(S(=O)(=O)N(C)C)cc1)C12CC(C)(C1)C2 [Compound 115, N1,N1-dimethyl-N4-(2-(methyl(3-methylbicyclo[1.1.1]pentan-1-yl)amino)phenyl) benzene-1,4-disulfonamide] | 1100 | 758 | – | – |
| CN(c1ccc(C#N)cc1NS(=O)(=O)c1ccc(S(=O)(=O)N(C)C)cc1)C1CCCCC1 [Compound 89, N1-(5-cyano-2-(cyclohexyl(methyl)amino)phenyl)-N4,N4-dimethylbenzene-1,4-disulfonamide] | 681 | – | 2400 | – |
